Test results published in US7109193B2, “Tricyclic diazepines tocolytic oxytocin receptor antagonists” (Wyeth, priority 2001, dated 2006).

Biological target: T1, human vasopressin V1a receptor subtype (Homo sapiens, UniProt P37288)
T1 construct: host or cells: CHO cells (pZeoSV vector for the Thibonnier line)
Test: Vasopressin binding in Chinese Hamster Ovary cell membranes expressing human vasopressin V1a subtype receptors
Conditions: 100 nM, CHO cell membranes, [3H]Manning ligand, values without parentheses
In short: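 Displacement of [3H]Manning ligand (8 nM working solution) from human V1a receptors in CHO cell membranes, 25–50 μg protein per well. Incubation ran 60 min at room temperature in 50 mM Tris-HCl pH 7.4 with protease inhibitors, followed by filtration and scintillation counting. Results are given as IC50 or percent inhibition.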

T1 sequence (P37288 whole entry): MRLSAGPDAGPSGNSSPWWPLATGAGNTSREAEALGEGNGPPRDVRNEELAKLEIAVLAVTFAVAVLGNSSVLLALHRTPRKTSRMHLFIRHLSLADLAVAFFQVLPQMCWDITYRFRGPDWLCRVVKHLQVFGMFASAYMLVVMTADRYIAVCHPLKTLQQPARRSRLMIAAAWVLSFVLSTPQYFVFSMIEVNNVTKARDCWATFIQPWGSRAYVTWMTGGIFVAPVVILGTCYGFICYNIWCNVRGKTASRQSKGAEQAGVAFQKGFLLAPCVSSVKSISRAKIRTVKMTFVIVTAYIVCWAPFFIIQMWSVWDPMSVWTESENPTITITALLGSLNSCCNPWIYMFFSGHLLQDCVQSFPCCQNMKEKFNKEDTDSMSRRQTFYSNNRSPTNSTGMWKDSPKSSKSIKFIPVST

| SMILES | inhibition at 0.1 µM |
| --- | --- |
| COc1cc(C(=O)N2Cc3ccc(C(=O)N4CCC(N5CCCCC5)CC4)n3Cc3ccccc32)ccc1-n1c(C)ccc1C [Example 311, {10-[4-(2,5-Dimethyl-1H-pyrrol-1-yl)-3-methoxy-benzoyl]-10,11-dihydro-5H-pyrrolo[2,1-c][1,4]benzodiazepin-3-yl}[4-(1-piperidinyl)-1-piperidinyl]-methanone] | -5% |
| COc1cc(C(=O)N2Cc3ccc(C(=O)n4ccnc4)n3Cc3ccccc32)ccc1-c1ccccc1C [Example 290, 1H-Imidazol-1-yl-{10-[(2-methoxy-2′-methyl[1,1′-biphenyl]-4-yl)carbonyl]-10,11-dihydro-5H-pyrrolo[2,1-c][1,4]benzodiazepin-3-yl}methanone] | 47% |
| COc1ccccc1-c1ccc(C(=O)N2Cc3ccc(C(=O)N4CCCN(C)CC4)n3Cc3ccccc32)cc1C [Example 62, {10-[(2′-Methoxy-2-methyl[1,1′-biphenyl]-4-yl)carbonyl]-10,11-dihydro-5H-pyrrolo[2,1-c][1,4]benzodiazepin-3-yl}(4-methyl-1,4-diazepan-1-yl)methanone] | 10% |
| COc1ccccc1-c1ccc(C(=O)N2Cc3ccc(C(=O)N[C@H]4CN5CCC4CC5)n3Cc3ccccc32)cc1 [Example 296, N-[(3R)-1-Azabicyclo[2.2.2]oct-3-yl]-10-[(2′-methoxy[1,1′-biphenyl]-4-yl)carbonyl]-10,11-dihydro-5H-pyrrolo[2,1-c][1,4]benzodiazepine-3-carboxamide] | 31% |
| COc1cccc(-c2cc(OC)c(C(=O)N3Cc4ccc(C(=O)N[C@@H](CCCCNC(=O)OC(C)(C)C)C(N)=O)n4Cc4ccccc43)cc2Cl)c1 [Example 302, tert-Butyl (5S)-6-amino-5-[({10-[(6-chloro-3,3′-dimethoxy[1,1′-biphenyl]-4-yl)carbonyl]-10,11-dihydro-5H-pyrrolo[2,1-c][1,4]benzodiazepin-3-yl}carbonyl)amino]-6-oxohexylcarbamate] | -15% |
| COc1ccccc1-c1ccc(C(=O)N2Cc3ccc(C(=O)NCCCN(C)C)n3Cc3ccccc32)cc1 [Example 75, N-[3-(Dimethylamino)propyl]-10-[(2′-methoxy[1,1′-biphenyl]-4-yl)carbonyl]-10,11-dihydro-5H-pyrrolo[2,1-c][1,4]benzodiazepine-3-carboxamide] | 27% |
| CN1CCCN(C(=O)c2ccc3n2Cc2ccccc2N(C(=O)c2ccc(-c4cccc5ccccc45)cc2Cl)C3)CC1 [Example 71, {10-[2-Chloro-4-(1-naphthyl)benzoyl]-10,11-dihydro-5H-pyrrolo[2,1-c][1,4]benzodiazepin-3-yl}(4-methyl-1,4-diazepan-1-yl)methanone] | 4% |
| Cc1ccccc1-c1ccc(C(=O)N2Cc3ccc(C(=O)N4CCN(CCCN(C)C)CC4)n3Cc3ccccc32)cc1 [Example 249, {4-[3-(Dimethylamino)propyl]-1-piperazinyl}{10-[(2′-methyl[1,1′-biphenyl]-4-yl)carbonyl]-10,11-dihydro-5H-pyrrolo[2,1-c][1,4]benzodiazepin-3-yl}methanone] | 12% |
| Cc1ccccc1-c1ccc(C(=O)N2Cc3ccc(C(=O)N4CCCN(C)CC4)n3Cc3ccccc32)cc1 [Example 65, {10-[(2′-Methyl[1,1′-biphenyl]-4-yl)carbonyl]-10,11-dihydro-5H-pyrrolo[2,1-c][1,4]benzodiazepin-3-yl}(4-methyl-1,4-diazepan-1-yl)methanone] | 40% |
| COc1cccc(-c2ccc(C(=O)N3Cc4ccc(C(=O)NCCCN(C)C)n4Cc4ccccc43)cc2C)c1 [Example 74, N-[3-(Dimethylamino)propyl]-10-[(3′-methoxy-2-methyl[1,1′-biphenyl]-4-yl)carbonyl]-10,11-dihydro-5H-pyrrolo[2,1-c][1,4]benzodiazepine-3-carboxamide] | 12% |
| COc1ccccc1-c1ccc(C(=O)N2Cc3ccc(C(=O)N[C@H]4CN5CCC4CC5)n3Cc3ccccc32)cc1C [Example 298, N-[(3R)-1-Azabicyclo[2.2.2]oct-3-yl]-10-[(2′-methoxy-2-methyl[1,1′-biphenyl]-4-yl)carbonyl]-10,11-dihydro-5H-pyrrolo[2,1-c][1,4]benzodiazepine-3-carboxamide] | 20% |
| COc1ccccc1-c1ccc(C(=O)N2Cc3ccc(C(=O)N[C@H]4CN5CCC4CC5)n3Cc3ccccc32)cc1OC [Example 299, N-[(3R)-1-Azabicyclo[2.2.2]oct-3-yl]-10-[(2,2′-dimethoxy[1,1′-biphenyl]-4-yl)carbonyl]-10,11-dihydro-5H-pyrrolo[2,1-c][1,4]benzodiazepine-3-carboxamide] | 14% |
| COc1cc(C(=O)N2Cc3ccc(C(=O)NCCCN(C)C)n3Cc3ccccc32)ccc1-c1ccccc1C [Example 77, N-[3-(Dimethylamino)propyl]-10-[(2-methoxy-2′-methyl[1,1′-biphenyl]-4-yl)carbonyl]-10,11-dihydro-5H-pyrrolo[2,1-c][1,4]benzodiazepine-3-carboxamide] | 44% |
| Cc1cc(C(=O)N2Cc3ccc(C(=O)N[C@H]4CN5CCC4CC5)n3Cc3ccccc32)ccc1-c1ccccc1C(F)(F)F [Example 301, N-[(3R)-1-Azabicyclo[2.2.2]oct-3-yl]-10-{[2-methyl-2′-(trifluoromethyl)[1,1′-biphenyl]-4-yl]carbonyl}-10,11-dihydro-5H-pyrrolo[2,1-c][1,4]benzodiazepine-3-carboxamide] | 1% |
| COc1cc(C(=O)N2Cc3ccc(C(=O)NCCCN(C)C)n3Cc3ccccc32)ccc1-n1c(C)ccc1C [Example 308, N-[3-(Dimethylamino)propyl]-10-[4-(2,5-dimethyl-1H-pyrrol-1-yl)-3-methoxybenzoyl]-10,11-dihydro-5H-pyrrolo[2,1-c][1,4]benzodiazepine-3-carboxamide] | -12% |

Continued, values first:

| inhibition at 0.1 µM | SMILES |
| --- | --- |
| 6% | COc1cc(-c2ccccc2C)c(Cl)cc1C(=O)N1Cc2ccc(C(=O)N3CCN(CCCN(C)C)CC3)n2Cc2ccccc21 [Example 251, {10-[(6-Chloro-3-methoxy-2′-methyl[1,1′-biphenyl]-4-yl)carbonyl]-10,11-dihydro-5H-pyrrolo[2,1-c][1,4]benzodiazepin-3-yl}{4-[3-(dimethylamino)propyl]-1-piperazinyl}methanone] |
| 9% | COc1cc(C(=O)N2Cc3ccc(C(=O)N4CCCN(C)CC4)n3Cc3ccccc32)ccc1-c1cccc2ccccc12 [Example 68, {10-[3-Methoxy-4-(1-naphthyl)benzoyl]-10,11-dihydro-5H-pyrrolo[2,1-c][1,4]benzodiazepin-3-yl}(4-methyl-1,4-diazepan-1-yl)methanone] |
| 9% | COc1cc(C(=O)N2Cc3ccc(C(=O)N4CCN(C(C)C)CC4)n3Cc3ccccc32)ccc1-n1c(C)ccc1C [Example 319, {10-[4-(2,5-Dimethyl-1H-pyrrol-1-yl)-3-methoxybenzoyl]-10,11-dihydro-5H-pyrrolo[2,1-c][1,4]benzodiazepin-3-yl}(4-isopropyl-1-piperazinyl)methanone] |
| -3% | COc1cc(-c2ccccc2C)c(Cl)cc1C(=O)N1Cc2ccc(C(=O)NCCCN(C)C)n2Cc2ccccc21 [Example 78, 10-[(6-Chloro-3-methoxy-2′-methyl[1,1′-biphenyl]-4-yl)carbonyl]-N-[3-(dimethylamino)propyl]-10,11-dihydro-5H-pyrrolo[2,1-c][1,4]benzodiazepine-3-carboxamide] |
| 24% | COc1ccccc1-c1ccc(C(=O)N2Cc3ccc(C(=O)N[C@@H](Cc4c[nH]cn4)C(N)=O)n3Cc3ccccc32)cc1C [Example 288, N-[(1S)-2-Amino-1-(1H-imidazol-4-ylmethyl)-2-oxoethyl]-10-[(2′-methoxy-2-methyl[1,1′-biphenyl]4-yl)carbonyl]-10,11-dihydro-5H-pyrrolo[2,1-c][1,4]benzodiazepine-3-carboxamide] |
| 11% | COc1cc(C(=O)N2Cc3ccc(C(=O)N(C)CCN(C)C)n3Cc3ccccc32)ccc1-n1c(C)ccc1C [Example 309, N-[2-(Dimethylamino)ethyl]-10-[4-(2,5-dimethyl-1H-pyrrol-1-yl)-3-methoxybenzoyl]-N-methyl-10,11-dihydro-5H-pyrrolo[2,1-c][1,4]benzodiazepine-3-carboxamide] |
| 2% | COc1ccccc1-c1ccc(C(=O)N2Cc3ccc(C(=O)N4CCN(C)CC4)n3Cc3ccccc32)cc1OC [Example 56, {10-[(2,2′-Dimethoxy[1,1′-biphenyl]-4-yl)carbonyl]-10,11-dihydro-5H-pyrrolo[2,1-c][1,4]benzodiazepin-3-yl}(4-methyl-1-piperazinyl)methanone] |
| 8% | COc1ccccc1-c1ccc(C(=O)N2Cc3ccc(C(=O)N4CCCN(C)CC4)n3Cc3ccccc32)cc1OC [Example 69, {10-[(2,2′-Dimethoxy[1,1′-biphenyl]-4-yl)carbonyl]-10,11-dihydro-5H-pyrrolo[2,1-c][1,4]benzodiazepin-3-yl}(4-methyl-1,4-diazepan-1-yl)methanone] |
| 7% | COc1ccccc1-c1ccc(C(=O)N2Cc3ccc(C(=O)N4CCN(CCCN(C)C)CC4)n3Cc3ccccc32)cc1OC [Example 254, {10-[(2,2′-Dimethoxy[1,1′-biphenyl]-4-yl)carbonyl]-10,11-dihydro-5H-pyrrolo[2,1-c][1,4]benzodiazepin-3-yl}{4-[3-(dimethylamino)propyl]-1-piperazinyl}methanone] |
| 8% | COc1cccc(-c2cc(OC)c(C(=O)N3Cc4ccc(C(=O)N5CCN(CCCN(C)C)CC5)n4Cc4ccccc43)cc2Cl)c1 [Example 252, {10-[(6-Chloro-3,3′-dimethoxy[1,1′-biphenyl]-4-yl)carbonyl]-10,11-dihydro-5H-pyrrolo[2,1-c][1,4]benzodiazepin-3-yl}{4-[3-(dimethylamino)propyl]-1-piperazinyl}methanone] |
